“Also recorded” adds a separate entry of the source.
How the values were obtained:
[1] = higher; cited from earlier work
[2] = tested on: MOLP-8 human multiple myeloma xenografts; test: MOLP-8 xenograft mouse experiments A, Part I (single bolus i.v. injection); type: in vivo, CB.17 SCID mice; conditions: for effect on tumor growth compared with PBS-treated animals: single i.v. bolus, 250 μg/kg maytansinoid (nBT062 antibody […])
Method: In these mice, subcutaneous tumors were established (female CB.17 SCID mice) by inoculation with MOLP-8 cell suspensions. Treatment with a single bolus intravenous injection was conducted when tumor volumes reached an average 113 mm^3. Changes in tumor volume and body weight were monitored twice per week.
Female CB.17 SCID mice, five weeks old, were obtained from Charles River Laboratories.
MOLP-8, a human multiple myeloma cell line, was supplied from ATCC.
Each mouse was inoculated with 1×10^7 MOLP-8 cells subcutaneously into the area under the right shoulder. The total volume was 0.2 ml per mouse, in which the ratio of serum-free medium to matrigel (BD Bioscience, Bedford, Mass.) was 1/1 (v/v). Prior to treatment, the xenograft tumors were monitored daily and were allowed to become established.
Eleven days after tumor cell inoculation, 42 mice were selected based on tumor volumes and body weights. […] The forty-two mice were randomly divided into seven groups (A-G) of six animals each based on tumor volume.
Each of six mice in Group A received 200 μl of PBS as vehicle control.
All agents were intravenously administered as a single bolus injection through a lateral tail vein with a 1 ml syringe fitted with a 27 gauge, ½ inch needle.

[3] = tested on: MOLP-8 tumor xenografts; test: Bulky MOLP-8 tumor model, Part II / xenograft mouse experiments B (TGD, log cell kill); type: in vivo, SCID mice; conditions: 450 μg/kg dose; mean time to reach 160 mm^3 minus control
Method: In a second set of experiments, MOLP-8 cells (1.5×10^7 cells per mouse), suspended in a 50:50 mixture of serum free media and matrigel were injected subcutaneously in the area under the right shoulder in 100 μl. Tumor volumes reached about 80 mm^3 at day 11 and the mean of the controls was about 750 mm^3 at day 25, post cell inoculation. […] Each mouse in the control group (n=6) received 0.2 ml of sterile PBS administered into the lateral tail vein (i.v.) in a bolus injection. All treatment doses were based on conjugated maytansinoid. […] Mice were randomized into eleven groups (n=6) by tumor volume using the LabCat Program. The tumor volumes ranged from 40.0 to 152.5 mm^3. The mice were dosed based on the individual body weight.
Tumor size was measured twice per week in three dimensions using the LabCat System (Tumor Measurement and Tracking, Innovative Programming Associated, Inc., Princeton, N.J.).
In this set of experiments, eighty-five mice were inoculated with MOLP-8 cells (1.5×10^7 cells/mouse) subcutaneously in the right shoulder. […] Sixty-six SCID mice bearing bulky MOLP-8 tumors with a mean tumor volume of about 80 mm^3 were randomized into eleven treatment groups (n=6).

Question: With `COc1cc2cc(c1Cl)N(C)C(=O)C[C@H](OC(=O)[C@H](C)N(C)C(C)=O)[C@]1(C)O[C@H]1[C@H](C)[C@@H]1C[C@@](O)(NC(=O)O1)[C@H](OC)/C=C/C=C(\C)C2` [maytansine] as the compound, how does the “cytotoxicity relative to anti-cancer drugs affecting tubulin polymerization (Vinca alkaloids, taxol)” value [1] read?
Answer: The value was 200-1000 fold.

Question: What does the source list for “B-B4-SPP-DM1: conjugate of the murine parental antibody B-B4 with DM1 via SPP linker”?
Answer: effect on tumor growth compared with PBS-treated animals [2]: marked delay in tumor growth; homogeneity of anti-tumor activity in individual mice ([2]; single i.v. dose 250 μg/kg, FIG. 9): more heterogeneously; also recorded: high binding variation

Question: Which results are given for nBT062?
Answer: effect on tumor growth compared with PBS-treated animals [2]: did not cause any significant inhibition of tumor growth; effect on tumor growth compared with PBS-treated animals ([2]; listed as huBT062): no significant impact on tumor growth

Question: Which “TGD (days), tumor growth delay” value [3] does the source give for “nBT062-DM1: nBT062 conjugate with DM1, linker not stated; TGD of 18 days matches nBT062-SMCC-DM1” here?
Answer: The value was 18 days.

From US9387261B2, “Immunoconjugates targeting CD138 and uses thereof” (priority 2007, dated 2016)
